This note sets out measurements from US20230392111A1, “COMPOSITION FOR PROMOTING THE GROWTH OF LACTIC ACID BACTERIA COMPRISING GROWTH FACTORS” (priority 2020, published 2023).

The subject of one experiment is Lactobacillus casei CBT-LC5 (KCTC 12398BP). The experiment in a line: Viable cell count after culture in supplemented BL broth. The class given is cell-based. The note with it: Exp. Ex. 1 carbon source; 2 parts by weight in 100 parts BL broth; 20 hours; pH about 5.0 to 6.5. As for the experimental part:
(§1) To promote the growth of non-specific various types of lactic acid bacteria, an optimal mixture composition was determined by culturing each of the following strains using each component, ratio and composition and measuring the viable cell count of each of the strains: Lactobacillus casei CBT-LC5 (accession number: KCTC 12398BP), Lactobacillus plantarum CBT-LP3 (accession number: KCTC 10782BP), Lactobacillus rhamnosus CBT-LR5 (accession number: KCTC 12202BP), Bifidobacterium longum CBT-BG7 (accession number: KCTC 12200BP), Bifidobacterium lactis CBT-BL3 (accession number: KCTC 11904BP), Bifidobacterium bifidum CBT-BF3 (accession number: KCTC 12199BP), Streptococcus thermophilus CBT-ST3 (accession number: KCTC 11870BP), and Pediococcus pentosaceus CBT-SL4 (accession number: KCTC 10297BP). Starter cultures were prepared using BL broth.
(§2) 0.1 to 1 part by weight of each of the starter cultures was inoculated into 100 parts by weight of each prepared medium, and then cultured for 20 hours while the pH was maintained at about 5.0 to 6.5. […] Thus, glucose or fructooligosaccharide was selected as a carbon source for a subsequent experiment (Table 2). […]
(§3) 0.1 to 1 part by weight of each starter culture was inoculated into 100 parts by weight of each of the prepared media, and then cultured for 20 hours while the pH was maintained at about 5.0 to 6.5. […]
In the case of `O=C(CO)[C@@H](O)[C@H](O)[C@H](O)CO` [Fructose], the viable cell count is on record as 408 ×10^7 cfu/ml.
Same read-out and setting: next, `OC[C@H]1O[C@@H](O[C@H]2[C@H](O)[C@@H](O)C(O)O[C@@H]2CO)[C@H](O)[C@@H](O)[C@H]1O` (stereo partly drawn) [Lactose]: 405 ×10^7 cfu/ml.
As to `OC[C@H]1O[C@@](CO)(O[C@H]2O[C@H](CO)[C@@H](O)[C@H](O)[C@H]2O)[C@@H](O)[C@@H]1O` [Refined sugar], the viable cell count is reported as 482 ×10^7 cfu/ml.

For another experiment, the system named is Lactobacillus rhamnosus CBT-LR5 (KCTC 12202BP). Described as above. Particulars: Exp. Ex. 1 carbon source; 2 parts by weight in 100 parts BL broth; 20 hours; pH about 5.0 to 6.5. The class given is cell-based. On the procedure: as §1, §2, §3
`O=C(CO)[C@@H](O)[C@H](O)[C@H](O)CO` [Fructose]: the viable cell count is on record as 486 ×10^7 cfu/ml.
As for `OC[C@H]1O[C@@H](O[C@H]2[C@H](O)[C@@H](O)C(O)O[C@@H]2CO)[C@H](O)[C@@H](O)[C@H]1O` (stereo partly drawn) [Lactose], the viable cell count was 405 ×10^7 cfu/ml.
As to `OC[C@H]1O[C@@](CO)(O[C@H]2O[C@H](CO)[C@@H](O)[C@H](O)[C@H]2O)[C@@H](O)[C@@H]1O` [Refined sugar], the viable cell count was 425 ×10^7 cfu/ml.

A further experiment relates to Bifidobacterium longum CBT-BG7 (KCTC 12200BP). Described as above. The class given is cell-based. The note with it: Exp. Ex. 1 carbon source; 2 parts by weight in 100 parts BL broth; 20 hours; pH about 5.0 to 6.5. As for the experimental part:
as §1, §2, §3
As to `O=C(CO)[C@@H](O)[C@H](O)[C@H](O)CO` [Fructose], the viable cell count is recorded as 405 ×10^7 cfu/ml.
Same read-out and setting: next, `OC[C@H]1O[C@@H](O[C@H]2[C@H](O)[C@@H](O)C(O)O[C@@H]2CO)[C@H](O)[C@@H](O)[C@H]1O` (stereo partly drawn) [Lactose]: 456 ×10^7 cfu/ml; `OC[C@H]1O[C@@](CO)(O[C@H]2O[C@H](CO)[C@@H](O)[C@H](O)[C@H]2O)[C@@H](O)[C@@H]1O` [Refined sugar]: 464 ×10^7 cfu/ml.

The test system of a further experiment is Bifidobacterium bifidum CBT-BF3 (KCTC 12199BP). Described as above. The class given is cell-based. The note with it: Exp. Ex. 1 carbon source; 2 parts by weight in 100 parts BL broth; 20 hours; pH about 5.0 to 6.5. On the procedure: as §1, §2, §3
`O=C(CO)[C@@H](O)[C@H](O)[C@H](O)CO` [Fructose]: the viable cell count was 434 ×10^7 cfu/ml.
Same read-out and setting: next, `OC[C@H]1O[C@@H](O[C@H]2[C@H](O)[C@@H](O)C(O)O[C@@H]2CO)[C@H](O)[C@@H](O)[C@H]1O` (stereo partly drawn) [Lactose]: 460 ×10^7 cfu/ml; `OC[C@H]1O[C@@](CO)(O[C@H]2O[C@H](CO)[C@@H](O)[C@H](O)[C@H]2O)[C@@H](O)[C@@H]1O` [Refined sugar]: 325 ×10^7 cfu/ml.

Another experiment concerns Pediococcus pentosaceus CBT-SL4 (KCTC 10297BP). Described as above. The class given is cell-based. The note with it: Exp. Ex. 1 carbon source; 2 parts by weight in 100 parts BL broth; 20 hours; pH about 5.0 to 6.5. On the procedure:
as §1, §2, §3
In the case of `O=C(CO)[C@@H](O)[C@H](O)[C@H](O)CO` [Fructose], the viable cell count is given as 550 ×10^7 cfu/ml.
For the compound `OC[C@H]1O[C@@H](O[C@H]2[C@H](O)[C@@H](O)C(O)O[C@@H]2CO)[C@H](O)[C@@H](O)[C@H]1O` (stereo partly drawn) [Lactose], the viable cell count is 520 ×10^7 cfu/ml.
The same measure, in the same setting: next, `OC[C@H]1O[C@@](CO)(O[C@H]2O[C@H](CO)[C@@H](O)[C@H](O)[C@H]2O)[C@@H](O)[C@@H]1O` [Refined sugar]: 580 ×10^7 cfu/ml.

The subject of a further experiment is Streptococcus thermophilus CBT-ST3 (KCTC 11870BP). Described as above. The note with it: Exp. Ex. 1 carbon source; 2 parts by weight in 100 parts BL broth; 20 hours; pH about 5.0 to 6.5. The class given is cell-based. On the procedure: as §1, §2, §3
As for `O=C(CO)[C@@H](O)[C@H](O)[C@H](O)CO` [Fructose], the viable cell count was 402 ×10^7 cfu/ml.
Regarding `OC[C@H]1O[C@@H](O[C@H]2[C@H](O)[C@@H](O)C(O)O[C@@H]2CO)[C@H](O)[C@@H](O)[C@H]1O` (stereo partly drawn) [Lactose], the viable cell count was 450 ×10^7 cfu/ml.
Still for that read-out and setting: in the case of `OC[C@H]1O[C@@](CO)(O[C@H]2O[C@H](CO)[C@@H](O)[C@H](O)[C@H]2O)[C@@H](O)[C@@H]1O` [Refined sugar] it was 504 ×10^7 cfu/ml.

A further experiment has as its system Bifidobacterium lactis CBT-BL3 (KCTC 11904BP). The experiment is described as above. The class given is cell-based. The note with it: Exp. Ex. 1 carbon source; 2 parts by weight in 100 parts BL broth; 20 hours; pH about 5.0 to 6.5. On the procedure:
as §1, §2, §3
For the compound `O=C(CO)[C@@H](O)[C@H](O)[C@H](O)CO` [Fructose], the viable cell count is reported as 522 ×10^7 cfu/ml.
As to `OC[C@H]1O[C@@H](O[C@H]2[C@H](O)[C@@H](O)C(O)O[C@@H]2CO)[C@H](O)[C@@H](O)[C@H]1O` (stereo partly drawn) [Lactose], the viable cell count is reported as 420 ×10^7 cfu/ml.
On the same count and under the same terms, in the case of `OC[C@H]1O[C@@](CO)(O[C@H]2O[C@H](CO)[C@@H](O)[C@H](O)[C@H]2O)[C@@H](O)[C@@H]1O` [Refined sugar] it was 472 ×10^7 cfu/ml.

The next experiment concerns Lactobacillus plantarum CBT-LP3 (KCTC 10782BP). The description is as above. The class given is cell-based. Particulars: Exp. Ex. 1 carbon source; 2 parts by weight in 100 parts BL broth; 20 hours; pH about 5.0 to 6.5. On the procedure:
as §1, §2, §3
With `O=C(CO)[C@@H](O)[C@H](O)[C@H](O)CO` [Fructose], the viable cell count was 452 ×10^7 cfu/ml.
The same measure, in the same setting: next, `OC[C@H]1O[C@@H](O[C@H]2[C@H](O)[C@@H](O)C(O)O[C@@H]2CO)[C@H](O)[C@@H](O)[C@H]1O` (stereo partly drawn) [Lactose]: 550 ×10^7 cfu/ml.
For `OC[C@H]1O[C@@](CO)(O[C@H]2O[C@H](CO)[C@@H](O)[C@H](O)[C@H]2O)[C@@H](O)[C@@H]1O` [Refined sugar], the viable cell count is reported as 427 ×10^7 cfu/ml.
